In ChEMBL document CHEMBL4699490, “Production of Highly Active Antiparasitic Compounds from the Controlled Halogenation of the Arrabidaea brachypoda Crude Plant Extract” (J Nat Prod, 2020):

Experiments:
[1] = system: Leishmania amazonensis; experiment: Antiparasitic activity against intracellular Leishmania amazonensis amastigotes infected in mouse peritoneal macrophage measured after 72 hrs; assay type: functional, organism-based
[2] = Cytotoxicity against Balb/c mouse peritoneal macrophage assessed as cell viability measured after 72 hrs by alamar blue assay; assay type: tissue-based; conditions: peritoneal macrophages
[3] = Selectivity index, ratio of CC50 for mouse peritoneal macrophages to IC50 for Leishmania amazonensis amastigotes infected in BALB/c mouse peritoneal macrophages; assay type: toxicity; conditions: read-out: Ratio CC50/IC50
[4] = system: Trypanosoma cruzi; experiment: Antiparasitic activity against intracellular Trypanosoma cruzi amastigotes infected in mouse peritoneal macrophage measured after 72 hrs; assay type: functional, organism-based
[5] = Selectivity index, ratio of CC50 for mouse peritoneal macrophages to IC50 for Trypanosoma cruzi amastigotes infected in BALB/c mouse peritoneal macrophages; assay type: toxicity; conditions: read-out: Ratio CC50/IC50

Row | SMILES | IC50 [1] | IC50 [4] | CC50 at 72 h [2] | selectivity ratio [3] | selectivity ratio [5]
1 | COc1ccc(/C=C/[C@@H]2c3c(OC)cc(O)c(Cl)c3O[C@H]3c4c(OC)cc(O)c(Cl)c4O[C@H](c4ccccc4)[C@@H]23)cc1 | 3.4 µM | 2.2 µM | > 100 µM | > 29 | > 45
2 | COc1ccc(/C=C/[C@@H]2c3c(OC)cc(O)c(Br)c3O[C@H]3c4c(OC)cc(O)cc4O[C@H](c4ccccc4)[C@@H]23)cc1 | 3.3 µM | 3.6 µM | > 100 µM | > 30 | > 28
3 | C[C@@H]1[C@H](O)[C@@H](C)/C=C/C=C/C=C/C=C/C=C/C=C/C=C/[C@H](O[C@@H]2O[C@H](C)[C@@H](O)[C@H](N)[C@@H]2O)C[C@@H]2O[C@](O)(C[C@@H](O)C[C@@H](O)[C@H](O)CC[C@@H](O)C[C@@H](O)CC(=O)O[C@H]1C)C[C@H](O)[C@H]2C(=O)O [AMPHOTERICIN B] | 0.2 µM | – | > 50 µM | > 217 | –
4 | COc1ccc(/C=C/[C@@H]2c3c(OC)cc(O)cc3O[C@H]3c4c(OC)cc(O)c(I)c4O[C@H](c4ccccc4)[C@@H]23)cc1 | 5.4 µM | 1.6 µM | > 100 µM | > 19 | > 63
5 | COc1ccc(/C=C/[C@@H]2c3c(OC)cc(O)c(Br)c3O[C@H]3c4c(OC)cc(O)c(Br)c4O[C@H](c4ccccc4)[C@@H]23)cc1 | 3.6 µM | 4.7 µM | > 100 µM | > 28 | > 21
6 | COc1cc(O)c(Cl)c2c1[C@@H](/C=C/c1ccccc1)[C@@H]1[C@@H](c3ccccc3)Oc3cc(O)cc(OC)c3[C@@H]1O2 | 1.2 µM | 1.4 µM | > 100 µM | > 83 | > 71
7 | COc1ccc(/C=C/[C@@H]2c3c(OC)cc(O)c(Cl)c3O[C@H]3c4c(OC)cc(O)cc4O[C@H](c4ccccc4)[C@@H]23)cc1 | > 10 µM | 1.4 µM | > 100 µM | – | > 71
8 | O=C(Cn1ccnc1[N+](=O)[O-])NCc1ccccc1 [BENZNIDAZOLE] | – | 1.4 µM | > 100 µM | – | > 35
9 | COc1ccc(/C=C/[C@@H]2c3c(OC)cc(O)c(I)c3O[C@H]3c4c(OC)cc(O)c(I)c4O[C@H](c4ccccc4)[C@@H]23)cc1 | 4.7 µM | 2.5 µM | > 100 µM | > 21 | > 40
10 | COc1cc(O)c(I)c2c1[C@@H](/C=C/c1ccc(O)cc1)[C@@H]1[C@@H](c3ccccc3)Oc3c(I)c(O)cc(OC)c3[C@@H]1O2 | 7.8 µM | 1.8 µM | > 100 µM | > 13 | > 56
11 | COc1cc(O)c(Br)c2c1[C@@H]1Oc3c(Br)c(O)c(Br)c(OC)c3[C@@H](/C=C/c3ccc(O)cc3)[C@@H]1[C@@H](c1ccccc1)O2 | 6.5 µM | > 10 µM | > 100 µM | > 15 | –

The next lines start with results.

Row | IC50 [1] | IC50 [4] | SMILES | CC50 at 72 h [2] | selectivity ratio [3] | selectivity ratio [5]
12 | 4.5 µM | 3.8 µM | COc1ccc(/C=C/[C@@H]2c3c(OC)c(Br)c(O)c(Br)c3O[C@H]3c4c(OC)cc(O)c(Br)c4O[C@H](c4ccccc4)[C@@H]23)cc1 | > 100 µM | > 22 | > 26
13 | 1 µM | 2.9 µM | COc1cc(O)c(Br)c2c1[C@@H]1Oc3c(Br)c(O)c(Br)c(OC)c3[C@@H](/C=C/c3ccccc3)[C@@H]1[C@@H](c1ccccc1)O2 | > 100 µM | > 100 | > 34
14 | 1.7 µM | 1.6 µM | COc1cc(O)c(Br)c2c1[C@@H](/C=C/c1ccccc1)[C@@H]1[C@@H](c3ccccc3)Oc3c(Br)c(O)cc(OC)c3[C@@H]1O2 | > 100 µM | > 59 | > 63
15 | > 10 µM | 1.9 µM | COc1cc(O)c(I)c2c1[C@@H](/C=C/c1ccccc1)[C@@H]1[C@@H](c3ccccc3)Oc3cc(O)cc(OC)c3[C@@H]1O2 | > 100 µM | – | > 53
16 | 2.2 µM | – | COc1ccc(/C=C/[C@@H]2c3c(OC)cc(O)cc3O[C@H]3c4c(OC)cc(O)cc4O[C@H](c4ccccc4)[C@@H]23)cc1 | > 20 µM | 9.1 | –
17 | 3.9 µM | 6.5 µM | COc1cc(O)c(I)c2c1[C@@H](/C=C/c1ccccc1)[C@@H]1[C@@H](c3ccccc3)Oc3c(I)c(O)cc(OC)c3[C@@H]1O2 | > 100 µM | > 26 | > 15
18 | 2.5 µM | 8.3 µM | COc1cc(O)c(Br)c2c1[C@@H](/C=C/c1ccc(O)cc1)[C@@H]1[C@@H](c3ccccc3)Oc3c(Br)c(O)cc(OC)c3[C@@H]1O2 | > 100 µM | > 40 | > 12
19 | > 20 µM | – | COc1cc(O)cc2c1[C@@H](/C=C/c1ccc(O)cc1)[C@@H]1[C@@H](c3ccccc3)Oc3cc(O)cc(OC)c3[C@@H]1O2 | > 20 µM | – | –
20 | 6.3 µM | – | COc1cc(O)cc2c1[C@@H](/C=C/c1ccccc1)[C@@H]1[C@@H](c3ccccc3)Oc3cc(O)cc(OC)c3[C@@H]1O2 | > 20 µM | 3.2 | –
